The target in this assay is MC1R on B16/F10 murine melanoma cells (Mus musculus, UniProt Q01727). Nature of the assay: In vitro competitive binding assay.

1 compound from paper PMC3799893 (Recent results in cancer research. Fortschritte der …, 2013) can be followed below.

Chain of MC1R on B16/F10 murine melanoma cells (Q01727 whole entry): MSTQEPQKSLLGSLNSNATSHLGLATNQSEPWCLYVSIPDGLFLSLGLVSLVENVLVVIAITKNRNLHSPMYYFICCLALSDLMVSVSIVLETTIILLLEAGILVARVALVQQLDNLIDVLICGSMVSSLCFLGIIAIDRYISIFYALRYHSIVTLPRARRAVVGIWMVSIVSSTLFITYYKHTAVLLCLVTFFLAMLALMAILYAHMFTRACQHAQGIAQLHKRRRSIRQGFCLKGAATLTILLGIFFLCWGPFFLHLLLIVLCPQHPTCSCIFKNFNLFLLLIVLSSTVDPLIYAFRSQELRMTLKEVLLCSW

For `CSCC[C@H](NC(=O)[C@H](CO)NC(=O)[C@H](Cc1ccc(O)cc1)NC(=O)[C@H](CO)NC(=O)CN1CCN(CC(=O)O)CCN(CC(=O)O)CCN(CC(=O)O)CC1)C(=O)N[C@@H](CCC(=O)O)C(=O)N[C@@H](Cc1c[nH]cn1)C(=O)N[C@@H](Cc1ccccc1)C(=O)N[C@@H](CCCNC(=N)N)C(=O)N[C@@H](Cc1c[nH]c2ccccc12)C(=O)NCC(=O)N[C@@H](CCCCN)C(=O)N1CCC[C@H]1C(=O)N[C@H](C(N)=O)C(C)C` [DOTA-a-MSH], the IC50 was determined as 1.8 ± 0.3 nM.

The term IC50 denotes the point on the concentration scale where inhibition reaches its midpoint.
